In US20240018122A1, “PYRIDAZINYL AMINO DERIVATIVES AS ALK5 INHIBITORS” (CHIESI FARMACEUTICI S.P.A., priority 2020, published 2024):

The molecules below were run against human ALK5 (Homo sapiens (Human), UniProt P36897) (assay: ADP-GLO Kinases assay, inhibitory activity on ALK5). Details: purified recombinant human ALK5 2.6 nM, TGFβ1 peptide substrate, 25° C, 150 min incubation, ADP-Glo detection; read-out: ALK5 IC50.
Assay type: biochemical

Chain of human ALK5 (P36897 80-503 limits assumed): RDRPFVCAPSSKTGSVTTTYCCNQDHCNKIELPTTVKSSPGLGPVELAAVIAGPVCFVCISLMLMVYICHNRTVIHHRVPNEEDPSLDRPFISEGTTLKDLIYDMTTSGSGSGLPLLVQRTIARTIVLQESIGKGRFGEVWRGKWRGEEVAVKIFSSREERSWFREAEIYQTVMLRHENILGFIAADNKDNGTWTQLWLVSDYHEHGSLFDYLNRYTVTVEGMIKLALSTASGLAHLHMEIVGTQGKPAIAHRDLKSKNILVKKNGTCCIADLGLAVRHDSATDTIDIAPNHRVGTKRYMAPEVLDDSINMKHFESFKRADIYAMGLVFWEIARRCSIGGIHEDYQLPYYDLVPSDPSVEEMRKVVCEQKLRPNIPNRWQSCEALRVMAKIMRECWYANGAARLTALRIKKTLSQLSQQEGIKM

IC50 [nM]	SMILES
< 1	Cc1nnc(-c2cc(Cl)ccc2F)cc1Nc1ccnc(NC(=O)CN2CCN(C)CC2)c1 [Example 172, N-(4-{[6-(5-Chloro-2-Fluorophenyl)-3-Methylpyridazin-4-Yl]Amino}Pyridin-2-Yl)-2-(4-Methylpiperazin-1-Yl)Acetamide]
5 to 10	O=C(OCCN1CCOCC1)c1ccc2nccc(Nc3cnnc(-c4cc(Cl)ccc4F)c3)c2c1 [Example 5, 2-(Morpholin-4-Yl)Ethyl 4-{[6-(5-Chloro-2-Fluorophenyl)Pyridazin-4-Yl]Amino}Quinoline-6-Carboxylate]
< 1	CC(=O)NCCN1CCN(CCOc2ccc3c(Nc4cnnc(-c5cc(Cl)ccc5F)c4)ccnc3c2)CC1 [Example 69, N-[2-(4-{2-[(4-{[6-(5-Chloro-2-Fluorophenyl)Pyridazin-4-Yl]Amino}Quinolin-7-Yl)Oxy]Ethyl}Piperazin-1-Yl)Ethyl]Acetamide]
< 1	COC(=O)C1CN(CCC(=O)Nc2cc(Nc3cc(-c4cc(Cl)ccc4F)nnc3C)ccn2)CCN1C(C)C (stereo not shown) [Example 113, Methyl 4-{2-[(4-{[6-(5-Chloro-2-Fluorophenyl)-3-Methylpyridazin-4-Yl]Amino}Pyridin-2-Yl)Carbamoyl]Ethyl}-1-(Propan-2-Yl)Piperazine-2-Carboxylate]
< 1	Cc1nnc(-c2cc(Cl)ccc2F)cc1Nc1ccnc(NC(=O)CN2CC3(CN(C)C3)C2)c1 [Example 143, N-(4-{[6-(5-Chloro-2-Fluorophenyl)-3-Methylpyridazin-4-Yl]Amino}Pyridin-2-Yl)-2-{6-Methyl-2,6-Diazaspiro[3.3]Heptan-2-Yl}Acetamide]
< 1	Cc1nnc(-c2cc(Cl)ccc2F)cc1Nc1ccnc(NC(=O)CCN2C[C@@H]3C[C@H]2CN3C)c1 [Example 111, N-(4-{[6-(5-Chloro-2-Fluorophenyl)-3-Methylpyridazin-4-Yl]Amino}Pyridin-2-Yl)-3-[(1S,4S)-5-Methyl-2,5-Diazabicyclo[2.2.1]Heptan-2-Yl]Propanamide]
< 1	Fc1ccc(Cl)cc1-c1cc(Nc2ccnc3cc(OCCN4CCNCC4)ccc23)cnn1 [Example 9, N-[6-(5-chloro-2-fluorophenyl)pyridazin-4-yl]-7-[2-(piperazin-1-yl)ethoxy]quinolin-4-amine]
< 1	CN1CCC(OC(=O)c2ccc3c(Nc4cnnc(-c5cc(Cl)ccc5F)c4)ccnc3c2)CC1 [Example 20, 1-Methylpiperidin-4-Yl 4-{[6-(5-Chloro-2-Fluorophenyl)Pyridazin-4-Yl]Amino}Quinoline-7-Carboxylate]
< 1	CN1CCN(CCNC(=O)c2cc3c(Nc4cnnc(-c5cc(Cl)ccc5F)c4)ccnc3[nH]2)CC1 [Example 25, 4-{[6-(5-chloro-2-fluorophenyl)pyridazin-4-yl]amino}-N-[2-(4-methylpiperazin-1-yl)ethyl]-1H-pyrrolo[2,3-b]pyridine-2-carboxamide]
< 1	N#CCCN1CCN(CCOc2ccc3c(Nc4cnnc(-c5cc(Cl)ccc5F)c4)ccnc3c2)CC1 [Example 71, 3-(4-{2-[(4-{[6-(5-Chloro-2-Fluorophenyl)Pyridazin-4-Yl]Amino}Quinolin-7-Yl)Oxy]Ethyl}Piperazin-1-Yl)Propanenitrile]

SMILES	IC50 [nM]
CN1CC2CC1CN2C(=O)Oc1ccc2c(Nc3cnnc(-c4cc(Cl)ccc4F)c3)ccnc2c1 (stereo not shown) [Example 137, 4-{[6-(5-Chloro-2-Fluorophenyl)Pyridazin-4-Yl]Amino}Quinolin-7-Yl 5-Methyl-2,5-Diazabicyclo[2.2.1]Heptane-2-Carboxylate]	< 1
CN1CCN(C(=O)COc2ccc3c(Nc4cnnc(-c5cc(Cl)ccc5F)c4)ccnc3c2)CC1 [Example 39, 2-[(4-{[6-(5-Chloro-2-Fluorophenyl)Pyridazin-4-Yl]Amino}Quinolin-7-Yl)Oxy]-1-(4-Methylpiperazin-1-Yl)Ethan-1-One]	1 to 5
Cc1nnc(-c2cc(Cl)ccc2F)cc1Nc1ccnc2cc(OC(=O)N3CCC(N4CCC4)CC3)ccc12 [Example 153, 4-{[6-(5-Chloro-2-Fluorophenyl)-3-Methylpyridazin-4-Yl]Amino}Quinolin-7-Yl 4-(Azetidin-1-Yl)Piperidine-1-Carboxylate]	< 1
